For one compound, IC50 results are on record in ChEMBL document CHEMBL1139695, “Development of pyrimidine-based inhibitors of Janus tyrosine kinase 3” (Bioorg Med Chem Lett, 2006).

Assay [1] relates to TF-1. In words: cells. As to conditions: Homo sapiens.
Description: Inhibition of IL4-induced proliferation of TF1 cells
Assay [2] concerns TF-1. In words: cells. As to conditions: Homo sapiens. The source holds these as a separate data set.
Description: Inhibition of IL3-induced proliferation of TF1 cells

Molecules are shown by their SMILES.

As for `C[C@H](Nc1ccnc(-n2cnc3ccncc32)n1)c1ccc(F)cc1`, the results for the IC50 in assay [1] and in assay [2] were 335 nM and 635 nM, respectively.

What is called IC50 is the concentration that inhibits the measured activity by half. Higher therefore signals a need for much substance.
